The record followed here is patent US20240058318A1, “DEGRADING PKCB1 TO TREAT CANCER” (Mayo Foundation for Medical Education and Research, priority 2020, published 2024).

Structures are written as SMILES. pIC50: −log10 of the molar value.

What all share (assay type): cell-based
Assay [1] concerns Rb-proficient (MDAMB231) and Rb-deficient (BT549 and MDAMB436) TNBC cells. The experiment in a line: CV proliferation assay, TNBC cells (statements across lines). To be noted: Rb-proficient and Rb-deficient TNBC cells, CV assay. The method, then:
(§1) Cell proliferation rates were determined using crystal violet assays. One thousand cells per well were plated in 96 well tissue culture plates and treated the following day with a bifunctional compound or control for 7 days in replicates of 8. Cells were fixed with 25% glutaraldehyde for 10 minutes with shaking, washed 5 times with distilled water, stained with a 1% crystal violet solution (solubilized in 25% methanol) for 10 minutes, washed again 5 times and allowed to dry. De-staining was performed using […] sodium citrate in 50% ethanol followed by quantification using a 96 well spectrophotometer set at an absorbance of 550 nm.
as §1, with “using CV” for “using crystal violet”, “assays. Two” for “assays. One”, “thousand (2000) or 4000” for “thousand”, “for 6” for “for 7”, “of 6.” for “of 8.”

The subject of assay [2] is MDAH-2774 and KURAMOCHI ovarian cancer cells. The experiment in a line: CV proliferation assay, ovarian cancer cells (statements across lines). To be noted: MDAH-2774 and KURAMOCHI cells. The method, then:
as §1
(§2) Based on the potent anti-proliferative activity of ENDX-PROTACs TC-Pr-006, TC-Pr-007, TC-Pr -008, and TC-Pr -009 in TNBC cells, the efficacy of these compounds for inhibiting the growth of ovarian cancer cells was tested. This analysis utilized KURAMOCHI cells, which represent the high-grade serous subtype (the most malignant form that accounts for 70% of all ovarian cancers and associates with poor clinical outcome) and MDAH-2774 cells, which represent endometrioid ovarian cancer and accounts for 20% of all ovarian cancer. PKCβ1 was confirmed to be expressed in both ovarian cancer cell line models, with MDAH-2774 cells expressing higher amounts of PKCβ1 compared to KURAMOCHI cells (FIG. 5A).

In a further assay the test system is MDAMB231 cells. In words: Crystal violet (CV) proliferation assay, MDAMB231. To be noted: MDAMB231 (PKCß1 high, Rb positive), 2000 cells. The procedure: (§3) Cell proliferation rates were determined using crystal violet assays. […] Cells were fixed with 25% glutaraldehyde for 10 minutes with shaking, washed 5 times with distilled water, stained with a 1% crystal violet solution (solubilized in 25% methanol) for 10 minutes, washed again 5 times and allowed to dry. De-staining was performed using […] sodium citrate in 50% ethanol followed by quantification using a 96 well spectrophotometer set at an absorbance of 550 nm.

A further assay relates to BT549 cells. In words: Crystal violet (CV) proliferation assay, BT549. To be noted: BT549 (PKCß1 high, Rb negative), 2000 cells. The method, then:
as §3

In the next assay the test system is MDAMB436 cells. In words: Crystal violet (CV) proliferation assay, MDAMB436. To be noted: MDAMB436 (PKCß1 low, Rb negative), 2000 cells. The procedure: as §3
The next assay deals with MDAH-2774 cells. The experiment in a line: CV proliferation assay, MDAH-2774 ovarian cancer cells. To be noted: MDAH-2774 (PKCß1 high), 1000 cells/well; read-out: Approximate IC50. The procedure: as §1, §2
The test system of the next assay is KURAMOCHI cells. The experiment in a line: CV proliferation assay, KURAMOCHI ovarian cancer cells. To be noted: KURAMOSHI (PKCß1 low), 1000 cells/well; read-out: Approximate IC50. The procedure: as §1, §2

On to `CC/C(=C(\c1ccc(O)cc1)c1ccc(OCCNC)cc1)c1ccccc1` [ENDX, endoxifen, reference compound], for which, in assay [1], the “concentration inhibiting growth of TNBC cells” value was more than 5 µM. In assay [2], the “concentration inhibiting growth of ovarian cancer cells” value turned out to be 10 µM.
`CC/C(=C(\c1ccc(O)cc1)c1ccc(OCCN(C)C(=O)COCCOCCNC(=O)c2ccc3c(c2)CN([C@H]2CCC(=O)NC2=O)C3=O)cc1)c1ccccc1` [TC-Pr-006]: the negative-log IC50 (pIC50) is 6.27 in the assay on MDAMB231 cells; 6.32 in the assay with BT549 cells; 6.48 in the assay with MDAMB436 cells; less than 5.00 in the assay on MDAH-2774 cells; less than 5.00 in the assay with KURAMOCHI cells.
